Test results from patent publication US10463712B2, “Human catestatin induces gut microbiota dysbiosis” (University of Manitoba, priority 2015, dated 2019).
Where no end group is shown, it is not given here.

Experiments:
[1] = tested on: fecal microbiota; experiment: Fecal microbiota composition by Illumina 16S rRNA sequencing after intrarectal CTS; type: in vivo, C57BL/6 mice; conditions: for Mean percentage of sequence in total bacterial population: CTS 1.5 mg/kg/day i.r. 6 days
Procedure: (§1) Male C57BL/6 mice (7-9 weeks old) were purchased from Charles River (Canada) and maintained in the animal care facility at the University of Manitoba. The experimental protocol was approved by the University of Manitoba Animal Ethics Committee (10-073) and the research was conducted according to the Canadian Guidelines for Animal Research. Two groups of 4 and 6 mice were studied, one receiving the vehicle solution and one receiving intra-rectal Infusion of CTS for 6 days.
(§2) Saline (0.9%) was injected in the control group. Mice were anaesthetized using Isoflurane (Abbott, Toronto, Canada).
(§3) Samples were collected 6 days post-treatment induction, after euthanasia under isoflurane (Abbot) anaesthesia. The macroscopic score was determined on the sacrifice day based on stool consistency, rectal prolapse and rectal and colonic bleeding. On the day of sacrifice, a 250 mg fecal sample and a portion of the colon were collected in individual collector tubes from each animal. All samples were preserved at −80° C. before use.
(§4) Colons were opened and 50 mg of scrapings were taken from the inside. Samples were homogenized at room temperature, and genomic DNA was extracted from 250 mg fecal mass using a ZR fecal DNA Kit (Zymo Research Corp., Orange, Calif.). DNA extraction was performed using a Qiagen DNeasy blood & tissue kit (Qiagen corp, Valencia, USA). Both DNA extraction kits have a bead-beating step to lyse microbial cells. To match the concentration requirement for pyrosequencing, DNA quantity was determined using a Beckman DU/800 spectrophotometer (Beckman Coulter, Inc., Fullerton, Calif.). Genomic DNA was normalized to achieve a concentration of 20 ng/μL, and quality-checked by 16S rRNA gene using PCR amplification of 27F (5′-[…]-3′, SEQ ID NO:2) and 342R (5′-[…]-3′, SEQ ID NO:3)^58, 59. Amplicons were verified by agarose gel electrophoresis.
(§5) Library construction and Illumina sequencing were performed as described by Derakhshani et al.^60. Briefly, the […] region of the 16S rRNA gene was targeted for PCR amplification using modified F515/R806 primers^61. A reverse PCR primer was Indexed with 12-base Golay barcodes to allow for sample multiplexing. The PCR reaction for each sample was performed in duplicate and contained 1.0 μl of pre-normalized DNA, 1.0 μl each of forward and reverse primers (10 μM), 12 μl HPLC grade water (Fisher Scientific, ON, Canada) and 10 μl 5 Prime Hot MasterMix® (5 Prime, Inc., Gaithersburg, USA). Reactions consisted of an initial denaturing step at 94° C. for 3 min followed by 35 amplification cycles at 94° C. for 45 sec, 50° C. for 60 sec and 72° C. for 90 sec; this was followed by an extension step at 72° C. for 10 min in an Eppendorf Mastercycler® (Eppendorf, Hamburg, Germany). PCR products were then purified using a ZR-96 DNA Clean-up Kit™ (ZYMO Research, CA, USA) to remove primers, dNTPs and reaction components. The V4 library was then generated by pooling 200 ng of each sample, and quantified using Picogreen dsDNA (Invitrogen, NY, USA). This was followed by multiple dilution steps using pre-chilled hybridization buffer (HT1) (Illumina, CA, USA) to bring the pooled ampilcons to a final concentration of […], and the concentration was measured through optical density using a Qubit® 2.0 Fluorometer (Life technologies, ON, Canada). […] The 150 paired-end sequencing reaction was performed on a MISeq platform (Illumina, CA, USA) at the Gut Microbiome and Large Animal Biosecurity Laboratories, Department of Animal Science, University of Manitoba, Canada.
(§6) Bioinformatics analyses were performed as described by Derakhshani et al.^60. Briefly, the PANDAseq assembler^62 was used to merge overlapping paired-end Illumina fastq files. All the sequences with mismatches or ambiguous calls in the overlapping region were discarded. The output fastq file was then analyzed using downstream computational pipelines in the open source software package QIIME^63.

[2] = tested on: induced colitis; conditions: Rabbi et al. 2014; cited from earlier work
[3] = tested on: Staphylococcus aureus, group A Streptococcus, Escherichia coli, Pseudomonas aeruginosa, Candida albicans, Aspergillus niger, A. fumigates, Trichophyton rubrum; conditions: gram-positive and gram-negative bacteria, yeasts, filamentous fungi; cited from earlier work
[4] = tested on: colonic mucosa associated microbiota; experiment: Colonic mucosa associated microbiota composition by Illumina 16S rRNA sequencing after intrarectal CTS; type: in vivo, C57BL/6 mice; conditions: for Mean percentage of sequence in total bacterial population: CTS 1.5 mg/kg/day i.r. 6 days
Procedure: as §1, §2, §3, §4, §5, §6

[5] = fecal samples, R^2=0.94, Q^2=0.57
[6] = colonic mucosa associated samples
[7] = colonic mucosa associated samples, R^2=0.32, Q^2=0.242

SSMKLSFRARAYGFRGPGPQL [CTS]
E. coli levels in the gut ([1]; CTS administration in vivo): not affected
S. aureus levels in the gut ([1]; CTS administration in vivo): not affected
Impact on Chao1, ACE, Shanon and Simpson indices of α-diversity ([1]; fecal bacterial community, vs control): no significant impact
Effect on Verrucomicrobia ([1]; fecal samples): lowered
β-diversity (unweighted UniFrac, PERMANOVA): bacterial community vs controls ([1]; fecal samples, P<0.05): clustered separately
PLS-DA association with CTS treatment: Adlercreutzia, Allobaculum, Bacteroidaceae (Family), Clostridia (Class), Ruminococcaceae (Family) [1, 5]: negative association
PLS-DA association with CTS treatment: Alpharoteobacteria (Class), Bacteroidales (Order), RF32 (Order), mitochondria (Family), YS2 (Order) [1, 5]: positive association
PLS-DA association with CTS treatment: genera Prevotella, Bacteroides Ovatus, Bacteroides, Parabacteroides distarosis, Parabacteroides and Dorea [1, 5]: positively associated
Change of Firmicutes population vs control ([1]; feces, P<0.001): significantly decreased
Change of relative abundance of Bacteroidetes vs control ([1]; feces, P<0.05): significantly increased
Prevotella, Bacteroides, and Parabacteroides populations ([1]; feces, lower taxonomical level): significant increase
Mean percentage of sequence in total bacterial population ([1]; phylum Actinobacteria, fecal samples): 0.1877%
Mean percentage of sequence in total bacterial population ([1]; phylum Bacteroidetes, fecal samples): 74%
Mean percentage of sequence in total bacterial population ([1]; phylum Cyanobacteria, fecal samples): 0.152%
Mean percentage of sequence in total bacterial population ([1]; phylum Deferribacteres, fecal samples): 1.144%
Mean percentage of sequence in total bacterial population ([1]; phylum Fibrobacteres, fecal samples): 0.000541%
Mean percentage of sequence in total bacterial population ([1]; phylum Firmicutes, fecal samples): 20.56%
Mean percentage of sequence in total bacterial population ([1]; phylum Proteobacteria, fecal samples): 2.873%
Mean percentage of sequence in total bacterial population ([1]; phylum TM7, fecal samples): 0.003098%
Mean percentage of sequence in total bacterial population ([1]; phylum Tenericutes, fecal samples): 0.4046%
Mean percentage of sequence in total bacterial population ([1]; phylum Unclassified, fecal samples): 0.4142%
Mean percentage of sequence in total bacterial population ([1]; phylum Verrucomicrobia, fecal samples): 0.266%
Severity of induced colitis [2]: less severe induced colitis
Antimicrobial activity in vitro [3]: effective
Impact on Chao1, ACE, Shanon and Simpson indices of α-diversity ([4]; colonic mucosa associated bacterial community, vs control): no significant impact
Effect on Verrucomicrobia [4, 6]: lowered
Impact on relative abundance of bacterial phyla [4, 6]: no significant impact
β-diversity (PERMANOVA): bacterial community vs controls [4, 6]: no significant change
PLS-DA association with CTS treatment: Bacteroidales, Chitinophagaceae, Clostridlaceae, Clostridiales, Coriobacteriaceae, Pseudomonadaceae, Rikenellaceae, Ruminococcaceae, YS2 [4, 7]: positive association
PLS-DA association with CTS treatment: genera Bifidobacterium and Stenotrophomonas [4, 7]: positive association
Mean percentage of sequence in total bacterial population ([4]; phylum Acidobacteria, colonic mucosa associated samples): 0.03339%
Mean percentage of sequence in total bacterial population ([4]; phylum Actinobacteria, colonic mucosa associated samples): 0.0724%
Mean percentage of sequence in total bacterial population ([4]; phylum Armatimonadetes, colonic mucosa associated samples): 0.000879%
Mean percentage of sequence in total bacterial population ([4]; phylum Bacteroidetes, colonic mucosa associated samples): 21.0435%
Mean percentage of sequence in total bacterial population ([4]; phylum Chlamydiae, colonic mucosa associated samples): 0.00306%
Mean percentage of sequence in total bacterial population ([4]; phylum Chlorobi, colonic mucosa associated samples): 0.002098%
Mean percentage of sequence in total bacterial population ([4]; phylum Cyanobacteria, colonic mucosa associated samples): 0.1752%
Mean percentage of sequence in total bacterial population ([4]; phylum Deferribacteres, colonic mucosa associated samples): 5.95%
Mean percentage of sequence in total bacterial population ([4]; phylum Fibrobacteres, colonic mucosa associated samples): 0.01378%
Mean percentage of sequence in total bacterial population ([4]; phylum Firmicutes, colonic mucosa associated samples): 12.52%
Mean percentage of sequence in total bacterial population ([4]; phylum Lentisphaerae, colonic mucosa associated samples): 0.00457%
Mean percentage of sequence in total bacterial population ([4]; phylum OD1, colonic mucosa associated samples): 0.004988%
Mean percentage of sequence in total bacterial population ([4]; phylum OP3, colonic mucosa associated samples): 0.001604%
Mean percentage of sequence in total bacterial population ([4]; phylum Planctomycetes, colonic mucosa associated samples): 0.004664%
Mean percentage of sequence in total bacterial population ([4]; phylum Proteobacteria, colonic mucosa associated samples): 59.17%
Mean percentage of sequence in total bacterial population ([4]; phylum Spirochaetes, colonic mucosa associated samples): 0.08226%
Mean percentage of sequence in total bacterial population ([4]; phylum TM7, colonic mucosa associated samples): 0.007409%
Mean percentage of sequence in total bacterial population ([4]; phylum Tenericutes, colonic mucosa associated samples): 0.3714%
Mean percentage of sequence in total bacterial population ([4]; phylum Unclassified, colonic mucosa associated samples): 0.2915%
Mean percentage of sequence in total bacterial population ([4]; phylum Verrucomicrobia, colonic mucosa associated samples): 0.1428%
